Results as given in US7662547B2, “Compositions and methods for detecting and treating HIV infections” (priority 2006, dated 2010).

How the values were obtained:
HIV-1 = HIV-1 latent infection of resting CD4 T cells, viral replication assay (p24 ELISA) after anti-CD3/CD28 activation; format: cell-based, HIV-1NL4-3; settings: for HIV replication in resting T cells: 5 minutes before infection
Protocol: Virus stocks of the HIV-1NL4-3 (Adachi et al. J Virol 59(2), 284-91 (1986)) were prepared by transfection of HeLa cells with cloned proviral DNA as described in Wu and Marsh (2001). Supernatant was harvested at 48 hours, and filtered through a 0.45 μm nitrocellulose membrane. Virus titer (TCID50) was measured by infection of a Rev-CEM indicator cell line which was constructed through stable integration of a Rev-dependent GFP expression lentiviral vector into CEM-SS. […] For infection of resting CD4 T cells, viruses were first titrated to determine minimal levels detectable by p24 ELISA in replication assays described below. Unless specified, for most replication assays, 10^3.5 to 10^4.5 TCID50 units of HIV-1 were used to infect 10^6 cells. For infection procedure, CD4 T cells were incubated with the virus for 2 hours, then washed twice with medium to remove unbound virus. Infected cells were resuspended into fresh RPMI 1604 medium supplemented with 10% heat-inactivated fetal bovine serum, penicillin (50 U/ml) and streptomycin (50 μg/ml) at a density of 10^6 per ml and incubated for 5 days without stimulation. Cells were activated at day 5 with anti-CD3/CD28 magnetic beads at 4 beads per cells. For viral replication assay, 10% of infected cells were taken at 1, 3, 5, 6, 7, 8, 9 days post infection. Cells were pelleted and the supernatant was saved for p24 ELISA. Levels of p24 in the supernatant were measured by using Coulter HIV-1 p24 Assay Kit (Beckman Coulter, Inc. Miami, Fla.). Plates were kinetically read using ELx808 automatic microplate reader (Bio-Tek Instruments, Inc. Winooski, Vt.) at 630 nm.
Resting CD4 T cells were treated with pertussis toxin (Sigma, St. Louis, Mo.) at a final concentration of 100 ng/ml for 2 hours, then infected with HIV-1. Following infection, cells were washed 2 to 3 times to remove cell-free virus and the inhibitor. Cells were treated with Jasplakinolide (Molecular Probes, Eugene, Oreg.) for 1 to 2 hours or Latrunculin A (Biomol, Plymouth Meeting, Pa.) for 5 minutes at various concentrations, washed twice with medium, then infected with HIV-1. Following infection, cells were washed twice to remove cell free virus. Cells were treated with 200 nM of Staurosporine (Biomol, Plymouth Meeting, Pa.) for 2 hours, then infected with HIV-1. Following infection, cells were washed twice to remove cell-free virus and the inhibitor.
Resting CD4 T cells were treated with S3 or Q104 for I to 2 hours, then infected with HIV-1. Following infection, cells were washed 2 to 3 times to remove cell-free virus and the peptides.
Effects of Jas on LFA-1 activation also were tested. Jas treated or untreated resting T cells were activated by anti-CD3/CD28 bead and stained with human ICAM-1/Fc chimera and analyzed by flow cytometer. The effects of Jas on IL-2 secretion also were measured. […] Cells were treated with Jas for 2 hours, washed, infected with HIV-1 for 5 days, then activated by anti-CD3/CD28 bead. […] Following infection, cellular DNA was PCR amplified for viral late DNA and β-actin pseudogene. Cells were pre-activated with PHA plus IL-2, then treated and infected as in FIG. 3A. […] CEM-SS cell were treated and infected as in FIG. 3A.

F-actin = assay: FITC-phalloidin staining of F-actin and flow cytometry in resting CD4 T cells; format: cell-based, human
Protocol: Cells were stimulated with HIV-1 or gp120 IIIB (Microbix Biosystems Inc. Toronto, Ontario). F-actin staining using FITC-labeled phalloidin (Sigma, St. Louis, Mo.) was carried out according to the manufacture's recommendation with minor modifications. Briefly, each staining was carried out by using 10^6 cells. Cells were pelleted, fixed and permeabilized with cytoperm/cytofix (BD biosciences, San Diego, Calif.) for 20 min on ice, followed by stained with 5 μl of 0.3 uM FITC-labeled phalloidin for 30 min at 4° C. After wash, cells were resuspended in 1% paraformaldehyde and analyzed on FACSCalibur (BD Biosciences, San Jose, Calif.)

IL-2 secretion = assay: IL-2 ELISA of cell culture supernatant after T cell activation; format: cell-based, human; settings: 200 nM, treated, incubated and activated
Protocol: IL-2 release into cell culture supernatant was detected by a human IL-2 ELISA development kit (PeproTech, Rocky Hill, N.J.) according to the manufacture's instruction. Briefly, each well of a plate was coated with 100 μl of capture antibody (1 μg/ml) and incubated overnight at room temperature, then washed and blocked with 300 μl of blocking solution for one hour at room temperature. Samples in plates were incubated for 1 hour at 37° C., then washed and incubated with 100 μl of detection antibody (0.5 μg/ml) for 1 hour at 37° C. Plates were washed and incubated with 100 μl of the avidin-peroxidase conjugate (1:2000 dilution) for 30 minutes at room temperature followed by washing and incubation with 100 μl of Tetramethylbenzidine (TMB) substrate buffer. Plates were kinetically read using ELx808 automatic microplate reader (Bio-Tek Instruments, Inc. Winooski, Vt.) at 630 nm.

cofilin = assay: Cofilin and phospho-cofilin western blot in resting CD4 T cells; format: cell-based, human
Protocol: For activation of resting CD4 T cells with PHA (3 μg/ml) (Sigma, St. Louis, Mo.) plus IL-2 (100 U/ml) (Roche Applied Science, Indianapolis, Ind.), cells were cultured in the presence of these agents for 1 day.
Briefly, 10^6 of CD4 T cells were lysed in NuPAGE LDS Sample Buffer (Invitrogen, Carlsbad, Calif.) followed by sonication. Samples were heated at 70° C. for 10 minutes before loading, then separated by SDS-PAGE and transferred onto nitrocellulose membranes (Invitrogen, Carlsbad, Calif.). The membranes were washed in TBS for 5 minutes and then blocked for 30 minutes at room temperature with Starting Block blocking buffer (Pierce, Rockford, Ill.). The blots were incubated with either a rabbit anti-cofilin antibody (1:1000 dilution) (Cell Signaling, Danvers, Mass.) or a rabbit anti-phospho-cofilin (ser3) antibody (1:1000 dilution) (Cell Signaling, Danvers, Mass.) diluted in 5% BSA-TBST and rocked at room temperature for 1 hour. The blots were washed three times for 15 minutes each and then incubated with a goat anti-rabbit horseradish peroxidase-conjugated antibodies (KPL, Inc. Gaithersburg, Md.) diluted in 2.5% skim milk-TBST (1:1000) for 1 hour. […] Images were captured with a CCD camera (Fluor Chem 9900 Imaging Systems) (Alpha Innotech, San Leandro, Calif.) and analyzed and processed by NIH-Image Version 163.

LIMK1 = biological target: T1, LIMK1 (Homo sapiens, UniProt P53667); assay: In vitro LIMK1 kinase assay with GST-tagged recombinant human cofilin; format: biochemical
T1 construct: purchased Upstate Biotechnologies, Lake Placid, N.Y
Protocol: LIMK1 Kinase assays were performed using purified LIMK1 and GST-tagged recombinant human cofilin (Upstate Biotechnologies, Lake Placid, N.Y.) according to the manufacture's recommendation with minor modifications. Briefly, 18 μg of recombinant cofilin was incubated in 1× Kinase reaction buffer ([…], pH7.0, 200 μM EDTA) in the presence or absence of Staurosporine (200 nM) or the S3, Q104 peptides. LIMK1 was serially diluted in dilution buffer (20 mM MOPS-NaOH pH 7.0, 1 mM EDTA, 0.01% Brij-35, 5% glycerol, 0.1% 2-ME, 1 mg/ml BSA), then added into the reaction along with the ATP buffer (10 mM Magnesium Acetate, 100 μM ATP). The reaction was incubated for 15 minutes at 30° C. with constant agitation. The reaction was stopped by adding 25% (V/V) of 4×LDS sample buffer for SDS-PAGE and heated for 10 minutes at 70° C. Cofilin phosphorylation was analyzed by SDS-PAGE and western blotting using a rabbi anti-phospho-cofilin (ser3) antibody (Cell Signaling, Danvers, Mass.) as described in Example 10.

HIV = settings: Doranz et al. 1999; cited from earlier work
[1] = 200 nM added during T cell activation at day 5

T1 sequence (P53667 whole entry, species assumed): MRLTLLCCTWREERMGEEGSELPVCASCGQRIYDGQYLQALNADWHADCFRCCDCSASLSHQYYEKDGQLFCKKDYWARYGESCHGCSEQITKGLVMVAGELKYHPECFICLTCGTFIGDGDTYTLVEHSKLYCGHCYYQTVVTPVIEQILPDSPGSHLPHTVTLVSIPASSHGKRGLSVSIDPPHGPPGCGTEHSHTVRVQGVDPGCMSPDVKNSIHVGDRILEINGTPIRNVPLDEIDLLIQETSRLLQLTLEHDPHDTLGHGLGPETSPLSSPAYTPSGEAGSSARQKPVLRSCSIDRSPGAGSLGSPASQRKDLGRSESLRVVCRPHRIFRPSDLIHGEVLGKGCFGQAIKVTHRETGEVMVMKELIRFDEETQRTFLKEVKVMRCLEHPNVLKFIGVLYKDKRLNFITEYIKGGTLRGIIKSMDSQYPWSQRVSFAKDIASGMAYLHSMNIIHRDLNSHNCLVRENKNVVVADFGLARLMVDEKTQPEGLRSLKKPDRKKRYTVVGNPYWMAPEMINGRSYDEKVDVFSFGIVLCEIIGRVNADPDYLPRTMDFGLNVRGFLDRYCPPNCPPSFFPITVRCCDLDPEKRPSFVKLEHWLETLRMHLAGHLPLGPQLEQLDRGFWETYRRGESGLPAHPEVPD

Q: What does the source list for C/C1=C/C(=O)O[C@@H]2C[C@@H](CC[C@H](C)/C=C\C=C\CC1)O[C@@](O)([C@@H]1CSC(=O)N1)C2 [Lat-A, Latrunculin A]?
A: HIV replication in resting T cells, treatment before vs after infection (HIV-1; 25 nM, 5 minutes): enhancement was seen only in cells pretreated with Lat-A prior to infection; HIV replication in resting T cells (HIV-1; 25 nM): Enhanced HIV replication; HIV replication in resting T cells (HIV-1; 250 nM): donor-dependent variations from enhancement to inhibition; HIV replication in resting T cells (HIV-1; 2.5 μM): inhibited viral replication in all donors; actin depolymerization (F-actin; 25 nM, 5 min): actin depolymerization to an extent similar to that induced by HIV-1; actin depolymerization (F-actin; 2.5 μM to 250 nM, 5 min): dramatic actin depolymerization

Q: Which results are given for CN[C@@H]1C[C@H]2O[C@@](C)([C@@H]1OC)n1c3ccccc3c3c4c(c5c6ccccc6n2c5c31)C(=O)NC4 [staurosporine]?
A: IL-2 secretion (IL-2 secretion): slight inhibition; HIV-1 replication (HIV-1; [1]): completely abolished HIV-1 replication; T cell activation (HIV-1; [1]): inhibited T cell activation; HIV replication in resting CD4 T cells (HIV-1; 200 nM briefly before infection): dramatic enhancement; actin depolymerization (F-actin; 200 nM): actin depolymerization also was observed; cofilin phosphorylation in resting CD4 T cells (cofilin; 200 nM, no stimulation): gradual dephosphorylation and activation of cofilin; LIMK1 inhibition compared with S3 peptide (LIMK1; 200 nM): much stronger; phosphorylation of cofilin by LIMK1 (LIMK1; 200 nM): directly inhibited

Q: For “S3: Synthetic peptide MASGVAVSDGVIKVFN (SEQ ID NO: 3), N-terminal 16 amino acids of human cofilin”, which “viral replication in resting CD4 T cells” value (HIV-1; pre-treated 2 hours, then infected) is on record?
A: enhanced viral replication

Q: And the “cofilin phosphorylation by LIMK1” value (LIMK1; peptide)?
A: inhibited cofilin phosphorylation

Q: For SDF-1: the natural ligand for CXCR4, which F-actin change (F-actin; 50 ng/ml) is on record?
A: rapid actin polymerization

Q: With pertussis toxin [P.T] as the compound, how does the “viral replication in resting T cells” value (HIV-1; 100 ng/ml for 2 hours before infection) read?
A: inhibited viral replication

Q: What about the “inhibition of viral induced actin depolymerization” value (F-actin; 100 ng/ml for 2 hours, then HIV-1) of the same compound?
A: completely inhibited

Q: And the “inhibition of HIV-1 induced cofilin activation” value (cofilin; pretreated, then infected with HIV-1)?
A: Complete inhibition

Q: What about the “viral replication in CXCR4 transfected U87-MG cells” value (HIV) of the same compound?
A: did not affect viral replication
